Data taken from patent publication US11773057B2, “Naphthalenesulfonamide compound, preparation method, and application” (CHINA PHARMACEUTICAL UNIVERSITY, priority 2019, dated 2023).

biological target: T1, Keap1-Nrf2 PPI (Keap1 kelch domain protein, FITC labeled Nrf2 9 peptide) (Homo sapiens, UniProt Q14145); experiment: Fluorescence polarization based Keap1-Nrf2 PPI competitive inhibition experiment (FP experiment); assay type: binding; conditions: FP experiment; general formula I / II compounds
T1 construct: 10 μL 12 nm Keap1 kelch domain protein
T1 sequence (Q14145 321-609 limits assumed): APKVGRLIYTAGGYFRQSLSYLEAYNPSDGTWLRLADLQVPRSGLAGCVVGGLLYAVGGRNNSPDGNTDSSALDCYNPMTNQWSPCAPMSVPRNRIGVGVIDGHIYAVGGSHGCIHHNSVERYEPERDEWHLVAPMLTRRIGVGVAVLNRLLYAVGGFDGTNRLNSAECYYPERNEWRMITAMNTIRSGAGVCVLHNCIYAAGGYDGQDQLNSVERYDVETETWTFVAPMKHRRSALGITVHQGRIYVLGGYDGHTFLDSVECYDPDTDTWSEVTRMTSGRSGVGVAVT
Procedure: 1. Keap1-Nrf2 PPI Competitive Inhibition Test Based on Fluorescence Polarization (FP Experiment)
The 384-well blackboard model 3676 produced by Corning is used in FP experiment, with a total volume of reaction of 40 μL. 20 μL compound, 10 μL 4 nm FITC labeled Nrf2 9 peptide, 10 μL 12 nm Keap1 kelch domain protein are added to the well in order. 20 μL 200 nM DDO-1002, 10 μL 4 nM of the FITC-labeled Nrf2 9 peptide, 10 μL 12 nM of Keap1 Ketch domain protein are used in the positive control; 20 μL HEPES buffer, 10 μL 4 nM of the FITC-labeled Nrf2 9 peptide, 10 μL, 12 nM of Keap1 Kelch domain protein are used in the negative control; 10 μL 4 nM of the FITC-labeled Nrf2 9 peptide, 30 μL of HEPES buffer are used in the blank control. After addition is complete, they are incubated for 30 min at room temperature. The detection instrument is a SpectraMax Multi-Mode Microplate Reader (Molecular Devices), the excitation light wavelength selected is 485 nm, the emission light wavelength is 545 nm, and the fluorescence intensity in the horizontal and vertical directions is detected to calculate the polarization value. The inhibition rate is calculated as: inhibition %=[…]/(Pmax−Pmin) wherein Pobs is the polarization value of the compound well, Pmax is the polarization value of the negative control well, and Pmin is the polarization value of the blank well. Data treatment is performed using GraphPad Prism, and IC50 of the compound is calculated using a concentration-inhibition rate curve. The IC50 values for each compound are as previously described.

Row | Structure (SMILES) | IC50
1 | COc1ccc(S(=O)(=O)Nc2ccc(N(Cc3ccc(C)cc3)[C@@H](C)CC(=O)O)c3ccccc23)cc1 [DDO-1162, 3-((4-((4-methoxyphenyl)sulfonamido)naphthalen-1-yl) (4-methylbenzyl)amino) butanoic acid] | 1910 nM
2 | COc1ccc(S(=O)(=O)Nc2ccc(N(Cc3ccc(Cl)cc3)[C@@H](C)CC(=O)O)c3ccccc23)cc1 [DDO-1164, (S)-3-((4-chlorobenzyl) (4-((4-methoxyphenyl)sulfonamido)naphthalen-1-yl)amino) butanoic acid] | 4100 nM
3 | COc1ccc(S(=O)(=O)N(CC(=O)O)c2ccc(N(Cc3ccc(C)cc3)[C@@H](C)CC(=O)O)c3ccccc23)cc1 [DDO-1163] | 152 nM
4 | COc1ccc(S(=O)(=O)N(CC(=O)O)c2ccc(N(Cc3ccccc3)[C@@H](C)CC(=O)O)c3ccccc23)cc1 [DDO-1161, (S)-3-(benzyl(4-((N-(carboxymethyl)-4methoxyphenyl)sulfonamido)naphthalen-1-yl) (benzyl)amino) butanoic acid] | 108 nM
5 | COc1ccc(S(=O)(=O)Nc2ccc(N(Cc3cccc(C)c3)[C@@H](C)CC(=O)O)c3ccccc23)cc1 [DDO-1168, (S)-3-((4-((4-methoxyphenyl)sulfonamido)naphthalen-1-yl) (3-methylbenzyl)amino) butanoic acid] | 1660 nM
6 | COc1ccc(S(=O)(=O)Nc2ccc(N(Cc3ccccc3)[C@@H](C)CC(=O)O)c3ccccc23)cc1 [DDO-1160] | 860 nM
7 | COc1ccc(S(=O)(=O)N(CC(=O)O)c2ccc(N(Cc3ccccc3F)[C@@H](C)CC(=O)O)c3ccccc23)cc1 [DDO-1179] | 75 nM
8 | COc1ccc(S(=O)(=O)N(CC(=O)O)c2ccc(N(Cc3ccc(Cl)cc3)[C@@H](C)CC(=O)O)c3ccccc23)cc1 [DDO-1165, (S)-3-((4-((N-(carboxymethyl)-4-methoxyphenyl)sulfonamido)naphthalen-1-yl) (4-chlorobenzyl)amino) butanoic acid] | 272 nM
9 | COc1ccc(S(=O)(=O)N(CC(=O)O)c2ccc(N(Cc3ccccc3Cl)[C@@H](C)CC(=O)O)c3ccccc23)cc1 [DDO-1175, (S)-3-((4-((N-(Carboxymethyl)-4-methoxyphenyl)sulfonamido)naphthalen-1-yl) (2-chlorobenzyl)amino) butanoic acid] | 109 nM
10 | COc1ccc(S(=O)(=O)Nc2ccc(N(Cc3cccc(F)c3)[C@@H](C)CC(=O)O)c3ccccc23)cc1 [DDO-1176, (S)-3-((3-fluorobenzyl) (4-((4-methoxyphenyl)sulfonamido)naphthalen-1-yl)amino) butanoic acid] | 2470 nM
11 | COc1ccc(S(=O)(=O)Nc2ccc(N(Cc3ccccc3F)[C@@H](C)CC(=O)O)c3ccccc23)cc1 [DDO-1178, (S)-3-((2-fluorobenzyl) (4-((4-methoxyphenyl)sulfonamido)naphthalen-1-yl)amino) butanoic acid] | 460 nM

same assay, conditions: FP experiment; general formula III compounds; unit inferred

Row | Structure (SMILES) | IC50
12 | C#CCN(c1ccc(NS(=O)(=O)c2ccc(C)cc2)c2ccccc12)[C@@H](C)CC(=O)O [DDO-1194, (S)-3-((4-((4-methylphenyl)sulfonamido)naphthalen-1-yl)(prop-2-yn-1-yl)amino) butanoic acid] | 480 nM
13 | C#CCN(c1ccc(NS(=O)(=O)c2c(C)cc(C)cc2C)c2ccccc12)[C@@H](C)CC(=O)O [DDO-1206, (S)-3-(prop-2-yn-1-yl(4-((2,4,6-trimethylphenyl)sulfonamido)naphthalen-1-yl)amino) butanoic acid] | 41 nM
14 | C#CCN(c1ccc(NS(=O)(=O)c2ccccc2)c2ccccc12)[C@@H](C)CC(=O)O [DDO-1186, (S)-3-((4-(phenylsulfonamido)naphthalen-1-yl)(prop-2-yn-1-yl)amino) butanoic acid] | 8000 nM
15 | C#CCN(c1ccc(NS(=O)(=O)c2ccccc2OC)c2ccccc12)[C@@H](C)CC(=O)O [DDO-1198] | 2000 nM
16 | C#CCN(c1ccc(NS(=O)(=O)c2ccc(NC(C)=O)cc2)c2ccccc12)[C@@H](C)CC(=O)O [DDO-1188, (S)-3-((4-((4-acetamidophenyl)sulfonamido)naphthalen-1-yl) (prop-2-yn-1-yl)amino) butanoic acid] | 1460 nM
17 | C#CCN(c1ccc(NS(=O)(=O)c2ccc(C(C)C)cc2)c2ccccc12)[C@@H](C)CC(=O)O [DDO-1196, (S)-3-((4-((4-isopropylphenyl)sulfonamido)naphthalen-1-yl)(prop-2-yn-1-yl)amino) butanoic acid] | 220 nM
18 | C#CCN(c1ccc(NS(=O)(=O)c2ccc(OC)cc2)c2ccccc12)[C@@H](C)CC(=O)O [DDO-1180] | 95 nM
19 | C#CCN(c1ccc(NS(=O)(=O)c2ccccc2C)c2ccccc12)[C@@H](C)CC(=O)O [DDO-1202, (S)-3-((4-((2-methylphenyl)sulfonamido)naphthalen-1-yl)(prop-2-yn-1-yl)amino) butanoic acid] | 240 nM

same assay, conditions: FP experiment; general formula IV compounds

Row | Structure (SMILES) | IC50
20 | C#CCN(c1ccc(N(CC(=O)O)S(=O)(=O)c2ccc(F)cc2)c2ccccc12)[C@@H](C)CC(=O)O [DDO-1191, (S)-3-((4-((N-(carboxymethyl)-4-fluorophenyl)sulfonamido)naphthalen-1-yl) (prop-2-yn-1-yl)amino) butanoic acid] | 2000 nM
21 | C#CCN(c1ccc(N(CC(=O)O)S(=O)(=O)c2ccc(C)cc2C)c2ccccc12)[C@@H](C)CC(=O)O [DDO-1205] | 27 nM
22 | C#CCN(c1ccc(N(CC(=O)O)S(=O)(=O)c2ccc(C)cc2)c2ccccc12)[C@@H](C)CC(=O)O [DDO-1195, (S)-3-((4-((N-(Carboxymethyl)-4-methylphenyl)sulfonamide)naphthalen-1-yl)(prop-2-yn-1-yl)amino) butanoic acid] | 110 nM
23 | C#CCN(c1ccc(N(CC(=O)O)S(=O)(=O)c2ccc(NC(C)=O)cc2)c2ccccc12)[C@@H](C)CC(=O)O [DDO-1189, (S)-3-((4-((4-acetamido-N-(carboxymethyl)phenyl)sulfonamido)naphthalen-1-yl)(prop-2-yn-1-yl)amino) butanoic acid] | 630 nM
24 | C#CCN(c1ccc(N(CC(=O)O)S(=O)(=O)c2ccc(Cl)cc2)c2ccccc12)[C@@H](C)CC(=O)O [DDO-1193, (S)-3-((4-((N-(Carboxymethyl)-4-chlorophenyl)sulfonamido)naphthalen-1-yl)(prop-2-yn-1-yl)amino) butanoic acid] | 950 nM
25 | C#CCN(c1ccc(N(CC(=O)O)S(=O)(=O)c2ccccc2C)c2ccccc12)[C@@H](C)CC(=O)O [DDO-1203, (S)-3-((4-((N-(Carboxymethyl)-methylphenyl)sulfonamido)naphthalen-1-yl)(prop-2-yn-1-yl)amino) butanoic acid] | 170 nM
26 | C#CCN(c1ccc(N(CC(=O)O)S(=O)(=O)c2ccccc2)c2ccccc12)[C@@H](C)CC(=O)O [DDO-1187, (S)-3-((4-(N-(carboxymethyl)benzenesulfonamido)naphthalen-1-yl) (prop-2-yn-1-yl)amino) butanoic acid] | 3000 nM
27 | C#CCN(c1ccc(N(CC(=O)O)S(=O)(=O)c2ccc(OC)cc2)c2ccccc12)[C@@H](C)CC(=O)O [DDO-1181] | 68 nM

same assay, conditions: FP experiment; general formula V / VI compounds

Row | Structure (SMILES) | IC50
28 | C#CCN(c1ccc(NS(=O)(=O)c2ccc3c(c2)CCO3)c2ccccc12)[C@@H](C)CC(=O)O [DDO-1222, (S)-3-((4-((2,3-dihydrobenzofuran)-5-sulfonamido)naphthalen-1-yl) (prop-2-yn-1-yl)amino) butanoic acid] | 160 nM
29 | C#CCN(c1ccc(N(CC(=O)O)S(=O)(=O)c2ccc3c(c2)CCO3)c2ccccc12)[C@@H](C)CC(=O)O [DDO-1223, (S)-3-((4-((N-(Carboxymethyl)-2,3-dihydrobenzofuran)-5-sulfonamido)naphthalen-1-yl)(prop-2-yn-1-yl)amino) butanoic acid] | 86 nM
30 | C#CCN(c1ccc(NS(=O)(=O)c2ccc(OC)c(C)c2)c2ccccc12)[C@@H](C)CC(=O)O [DDO-1216, (S)-3-((4-((4-methoxy-3-methylphenyl)sulfonamido)naphthalen-1-yl) (prop-2-yn-1-yl)amino) butanoic acid] | 72 nM
31 | C#CCN(c1ccc(N(CC(=O)O)S(=O)(=O)c2c(C)cc(OC)c(C)c2C)c2ccccc12)[C@@H](C)CC(=O)O [DDO-1219, (S)-3-((4-((N-(Carboxymethyl)-4-methoxy-2,3,6-trimethylphenyl)sulfonamidyl)naphthalen-1-yl)(prop-2-yn-1-yl)amino) butanoic acid] | 7.1 nM
32 | C#CCN(c1ccc(NS(=O)(=O)c2c(C)cc(OC)c(C)c2C)c2ccccc12)[C@@H](C)CC(=O)O [DDO-1218, (S)-3-((4-((4-methoxy-2,3,6-trimethylphenyl)sulfonamido)naphthalen-1-yl) (prop-2-yn-1-yl)amino) butanoic acid] | 23 nM
33 | C#CCN(c1ccc(N(CC(=O)O)S(=O)(=O)c2ccc(OC)c(F)c2)c2ccccc12)[C@@H](C)CC(=O)O [DDO-1213] | 155 nM
34 | C#CCN(c1ccc(N(CC(=O)O)S(=O)(=O)c2ccc(OC)c(C)c2)c2ccccc12)[C@@H](C)CC(=O)O [DDO-1217, (S)-3-((4-((N-(Carboxymethyl)-4-methoxy-3-methylphenyl)sulfonamido)naphthalen-1-yl)(prop-2-yn-1-yl)amino) butanoic acid] | 37 nM
